# Data reported in patent publication US20070244449A1, “System and method for the prevention of bacterial and fungal infections including Urinary Tract Infections (UTI) using N-halogenated amino acids” (Novacal Pharmaceuticals, Inc., priority 2005, published 2007).
# What was measured:
# [1] = system: Escherichia coli ATCC 25922; assay: Destruction of 48 h biofilm on 1-cm Foley catheter pieces, plate count; type: cell-based; details: 33 mM, 0.9% saline, pH 3.5
# Procedure: (§1) We have devised a dynamic in vitro model using traditional microbiological methods to assess the antimicrobial efficacy of 33 mM N, N-dichloro 2,2-dimethly taurine in 0.9% saline at pH 3.5, as compared to physiological saline in disinfecting intra-luminal and extra-luminal indwelling Foley catheter.
# (§2) Foley Catheter, manufactured by BARD • N,N-dichloro 2,2-dimethyl taurine (33 mM) in 0.9% saline pH 3.5 • Escherichia coli ATCC 25922 • Proteus mirabilis ATCC 29245
# (§3) Neutralizer Broth containing: A broth containing dextrose, lecithin, sodium thiosulfate, pancreatic digest of casein, Tween® 80, yeast extract, sodium bisulfate, sodium thioglycollate, monopotassium phosphate, and bromcresol purple.
# (§4) The ability of N,N-dichloro 2,2-dimethyl taurine to destroy biofilm formation was evaluated as follows. First, biofilm was established on 1-cm-long pieces of catheter for 48 hours in nutrient broth in the presence of either Proteus mirabilis or Escherichia coli. Subsequently, the biofilm-bearing pieces of catheter were exposed to 33 mM N,N-dichloro 2,2-dimethyl taurine in 0.9% saline at pH 3.5 over various periods of time. After the exposure, the pieces of catheter were transferred into 1 mL of neutralizer broth to stop the reaction. 0.1 mL (10%) of the neutralizer broth was then plated out onto nutrient agar and the number of colonies was counted. The CFU (Colony Forming Unit) values obtained were multiplied by 10 to obtain the actual CFU/mL values per treated sample.
# [2] = system: Proteus mirabilis ATCC 29245; assay: as above; type: cell-based; details: 33 mM, 0.9% saline, pH 3.5
# Procedure: as §1, §2, §3, §4
# [3] = system: E. coli and Pr. mirabilis; assay: Treated biofilm-bearing catheter pieces: re-culture (OD600) and visual examination; type: cell-based, Escherichia coli; Proteus mirabilis
# Procedure: In order to measure the amount of live bacteria left on the pieces of catheter following treatment, the biofilm-bearing pieces of catheter were transferred into tubes containing fresh growth medium. After allowing growth in a shaker at 37° C. for 4 hours, Optical Density (OD) was read at 600 nm.
# This was also shown by very low optical denisty readings (average of 0.057 OD600 units, individual data not listed) following the attempt to re-culture the bacteria from treated catheters.
# [4] = system: urease positive Escherichia coli ATCC 25922; assay: Biofilm eradication in model urinary catheter flow system; type: cell-based; details: for Average Log CFU/cm^2 on catheter section after treatment, average 3 pieces / Average Log CFU/cm^2 on catheter section after treatment, end / Average Log CFU/cm^2 on catheter section after treatment, front / Average Log CFU/cm^2 on catheter section after treatment, middle / Log reduction: pH 4, 0.9% NaCl; for Average Log CFU/cm^2 on catheter section after treatment, average 3 pieces / Average Log CFU/cm^2 on catheter section after treatment, end / Average Log CFU/cm^2 on catheter section after treatment, front / Average Log CFU/cm^2 on catheter section after treatment, middle: 3-day biofilm, 10 min flow + 30 min stationary; for Log reduction: versus PBS or saline
# Procedure: A test system was established which utilized size 14 Foley catheters (supplied by NovaCal), which were cut and installed into a pre-sterilized flow system (FIG. 4) using aseptic techniques. The system consists of five parallel channels, one channel per catheter. Sterile medium was supplied to the system via a flow-break, to prevent back-growth into the medium reservoir. The entire system was placed in a 37° C. incubator. After conditioning the system with artificial urine medium for 30 minutes, 2.0 ml inoculum from an overnight culture of urease positive Escherichia coli ATCC 25922 grown in artificial urine medium at 37° C. was introduced into the system via the valve closest to the flow break (bladder side of catheter). Each inoculum was tested to confirm urease production. After inoculation, the system remained under static conditions (no flow) for two hours, to allow for bacterial attachment to the catheters. Flow of artificial urine medium was then initiated and maintained at a rate of 0.75 ml/min for 3 days.
# Test Articles Used Were: • Sterile saline • N,N-dichloro 2,2-dimethyl taurine, 4 mM, pH 4, 0.9% by weight NaCl • N,N-dichloro 2,2-dimethyl taurine, 40 mM, pH 4, 0.9% by weight NaCl
# 20 ml of each treatment solution N,N-dichloro 2,2-dimethyl taurine and sterile control solution were loaded into 30 ml syringes and connected to a syringe pump. Sterile sections of tubing were attached from the syringe to the valve furthest from the flow break (bag end of the catheter). This end is designated as FRONT for sampling purposes. The pump was turned on and the treatments were introduced at 2.0 ml/min for 10 minutes through the catheters. Excess medium and treatment solution was captured in a waste container. After 10 minutes, the syringe pump was turned off and the solutions were left stationary in the catheters for 30 minutes. The solutions were then withdrawn back through the catheter into the syringe, medium flow was resumed for a 30 minute rinse time and the catheters were then sampled.
# Each catheter was divided into 3 segments (front, middle, end) and each segment was subsampled. One subsample was used to determine bacterial populations by plate count, another subsample was analyzed by staining with the LIVE/DEAD® Baclight™ bacterial viability kit (L7012, Molecular Probes, Oregon, USA) using confocal laser microscopy (CSLM), the third sample was imaged using scanning electron microscopy (SEM).
# For viable cell counts, a 3.0 centimeter section of tubing was removed and scraped with a sterile stainless steel rod (using aseptic technique) into a tube containing 10.0 ml of sterile phosphate-buffered saline (PBS). The tubes were then sonicated for two minutes and the suspension was vortexed for one minute. The number of viable (culturable) bacteria was enumerated by serial dilution in PBS and plate counts using the spread-plate technique. Results were expressed as CFU/cm^2 and are calculated as follows: [formula]
# The surface area of the internal lumen of the catheter section scraped was determined to be 2.826 cm^2.
# Three treatment runs were performed on 3 catheters each: One treated with PBS or sterile 0.9% saline as control, one treated with 4 mM and one treated with 40 mM N,N-dichloro 2,2-dimethyl taurine. The Log (CFU/cm^2) was calculated from the average of 9 treatments, consisting of 3 treatments of 3 catheter pieces for each Test Article.
# [5] = system: urease positive Escherichia coli ATCC 25922; assay: Biofilm prevention in model urinary catheter flow system; type: cell-based
# Procedure: Test Articles Used Were: • Sterile saline • White vinegar at 1:3 dilution with distilled water (filter sterilized). • Neomycin Prescription: 1 ml into 1000 ml of sterile saline • N,N-dichloro 2,2-dimethyl taurine, 40 mM, pH 4, 0.9% by weight NaCl
# Day 0: The test system, as described in detail above, utilized size 14 Foley catheters, cut and installed into a pre-sterilized flow system using aseptic techniques. Sterile medium was supplied to the system via a flow-break, to prevent back-growth into the medium reservoir. The entire system was placed into a 37° C. incubator. After conditioning the system with artificial urine medium for 30 minutes, each catheter was treated with a disinfectant. 20.0 ml of each treatment solution was loaded into 30 ml syringes and connected to a syringe pump. Sterile sections of tubing were attached from the syringe to the valve furthest from the flow break (bag end of the catheter). This end is designated as FRONT for sampling purposes. The pump was turned on and the treatments were introduced at 2.0 ml/min for 10 minutes through the catheters. Excess medium and treatment solution was captured in a waste container. After 10 minutes, the syringe pump was turned off and the solutions were left stationary in the catheters for 30 minutes. The solutions were then withdrawn back through the catheter into the syringe. The catheters were then rinsed with sterile medium for 30 minutes.
# On Day 0 only: An inoculum from an overnight culture of urease positive Escherichia coli ATCC 25922 grown in artificial urine medium at 37° C. was introduced into the system via the valve closest to the flow break (bladder side of catheter). Each inoculum was tested for confirmation of urease production. After inoculation, the system remained under static conditions (no flow) for two hours, to allow for bacterial attachment to the catheters. Flow of artificial urine medium was then initiated and maintained at a rate of 0.75 ml/min.
# Days 1, 3 and 5: For viable cell counts, a 3.0 centimeter section of tubing was removed and scraped with a sterile stainless steel rod (using aseptic technique) into a tube containing 10.0 ml of sterile PBS. The tubes were then sonicated for two minutes and the suspension was vortexed for one minute. The number of viable (culturable) bacteria was enumerated by serial dilution in PBS and plate counts using the spread-plate technique. Results are expressed as CFU/cm^2 and were calculated as described in Phase One.
# Days 1 and 3: After sampling, the catheters were disinfected and rinsed with sterile medium as described above.
# Days 2 and 4: the catheters were disinfected and rinsed with sterile medium as described above. No samples were taken.
# Day 5: Samples were taken for imaging and both ends of the catheter were sampled for viable cell count data.
# [6] = system: bacteria on Foley catheter removed from a patient; assay: Ex-vivo treatment of a patient catheter, viable plate counts; type: cell-based; details: 40 mM
# Procedure: Test Articles Used Were: • Sterile phosphate-buffered saline (PBS) • N,N-dichloro 2,2-dimethyl taurine, 40 mM, pH 4, 0.9% by weight NaCl
# A Foley catheter was removed from a patient by hospital personnel and placed in a sterile bag. In the Bozeman Deaconess Hospital (BDH) lab, the outside of the catheter was wiped down with 70% ethanol. Then the catheter was aseptically cut into 3 catheter portions (bag-end, middle and patient-end). Each portion was cut into 3.0 cm long sections using a ruler and razor blades.
# Three of the sections (one bag-end, one middle and one patient-end) designated as control were placed into sterile PBS. Three of the sections (one bag-end, one middle and one patient-end) were placed in 40 mM N,N-dichloro 2,2-dimethyl taurine. All catheter sections were treated for 30 minutes individually in sterile glass tubes, each with sufficient solution to be immersed completely. After treatment, each 3 cm section was removed from the treatment tubes and the PBS control tubes and placed into a second glass tube containing sterile PBS for a 2 minute rinse in order to remove the treatment solution. The section was then removed from the tube and aseptically cut into 1.0 cm and 2.0 cm pieces. The 2.0 cm piece was placed in a tube containing 10 ml of sterile PBS, vortexed, sonicated and diluted for viable plate counts. The number of viable (culturable) bacteria was enumerated by serial dilution in PBS and plate counts using the spread-plate technique. Samples were plated on blood agar plates. Results will be expressed as colony-forming units/cm^2, CFU/cm^2 (calculated as 2.0 cm length×0.25 cm (radius)×3.14 (pi)=1.57 cm^2). The 1.0 cm piece was placed in 4% formaldehyde solution.
# [7] = daily treatment, DCDMT 40 mM pH 4 0.9% NaCl, vinegar 1:3 in water, neomycin prescription 1 ml in 1000 ml saline
# [8] = pH 4, 0.9% NaCl, 30 min immersion
compound,measurement,setting,value
"CC(C)(CS(=O)(=O)O)N(Cl)Cl [N,N-dichloro 2,2-dimethyl taurine]",CFU/mL,[1]; exposure 5 min,0 CFU/mL
same,CFU/mL,[1]; exposure 10 min,0 CFU/mL
same,CFU/mL,[1]; exposure 20 min,0 CFU/mL
same,CFU/mL,[1]; exposure 30 min,0 CFU/mL
same,CFU/mL,[1]; exposure 45 min,0 CFU/mL
same,CFU/mL,[1]; exposure 60 min,0 CFU/mL
same,CFU/mL,[1]; exposure 120 min,0 CFU/mL
same,CFU/mL,[1]; exposure <1 min,0 CFU/mL
same,CFU/mL,[2]; exposure 5 min,1210 CFU/mL
same,CFU/mL,[2]; exposure 10 min,150 CFU/mL
same,CFU/mL,[2]; exposure 20 min,150 CFU/mL
same,CFU/mL,[2]; exposure 30 min,100 CFU/mL
same,CFU/mL,[2]; exposure 45 min,20 CFU/mL
same,CFU/mL,[2]; exposure 60 min,10 CFU/mL
same,CFU/mL,[2]; exposure 120 min,260 CFU/mL
same,CFU/mL,[2]; exposure <1 min,>>3000 CFU/mL
same,Visual examination of biofilm on the catheter surface,[3]; 33 mM in 0.9% saline at pH 3.5,subsequent removal
same,optical density readings following re-culture of bacteria from treated catheters (average),"[3]; 33 mM, 0.9% saline, pH 3.5, 4 h growth at 37 C in fresh medium, average, individual data not listed",0.057 OD600 units
same,bacterial counts and presence of biofilm (visual interpretation from images),[4]; 4 mM and 40 mM,significantly reduced
same,"Average Log CFU/cm^2 on catheter section after treatment, average 3 pieces",[4]; 4 mM,4.4 Log CFU/cm^2
same,"Average Log CFU/cm^2 on catheter section after treatment, end",[4]; 4 mM,5.1 Log CFU/cm^2
same,"Average Log CFU/cm^2 on catheter section after treatment, front",[4]; 4 mM,4.1 Log CFU/cm^2
same,"Average Log CFU/cm^2 on catheter section after treatment, middle",[4]; 4 mM,3.9 Log CFU/cm^2
same,Log reduction,[4]; 4 mM,4.7 Log
same,"Average Log CFU/cm^2 on catheter section after treatment, average 3 pieces",[4]; 40 mM,3.8 Log CFU/cm^2
same,"Average Log CFU/cm^2 on catheter section after treatment, end",[4]; 40 mM,3.8 Log CFU/cm^2
same,"Average Log CFU/cm^2 on catheter section after treatment, front",[4]; 40 mM,3.7 Log CFU/cm^2
same,"Average Log CFU/cm^2 on catheter section after treatment, middle",[4]; 40 mM,3.8 Log CFU/cm^2
same,Log reduction,[4]; 40 mM,5.3 Log
same,biofilm formation during the 5 day duration of the experiment,"[5]; 40 mM, pH 4, 0.9% NaCl",appeared to inhibit biofilm formation
same,"Biofilm prevention, viable cell count, Day 1",[5]; [7],2.6 log CFU/cm^2
same,"Biofilm prevention, viable cell count, Day 3",[5]; [7],3.2 log CFU/cm^2
same,"Biofilm prevention, viable cell count, Day 5 ""End"" (bladder end)",[5]; [7],3.1 log CFU/cm^2
same,"Biofilm prevention, viable cell count, Day 5 ""Front"" (bag end)",[5]; [7],3.9 log CFU/cm^2
same,"Average Log CFU/cm^2 on catheter section after treatment, average 3 pieces",[6]; [8],1.2 Log CFU/cm^2
same,"Average Log CFU/cm^2 on catheter section after treatment, bag end",[6]; [8],2.1 Log CFU/cm^2
same,"Average Log CFU/cm^2 on catheter section after treatment, middle",[6]; [8],0.5 Log CFU/cm^2
same,"Average Log CFU/cm^2 on catheter section after treatment, patient end",[6]; [8],0.8 Log CFU/cm^2
same,Log reduction,[6]; compared to catheter pieces treated with sterile PBS,1.8 Log
